Test results taken from patent publication US8268831B2, “Compounds derived from 2-(3-methylenedioxy)-benzoyl indol” (Biolab Sanus Farmaceutica Ltda., priority 2008, dated 2012).

Key:
[1] = system: isolated cavernous body of rabbit; assay: Relaxing effect on isolated cavernous body of rabbit pre-contracted with phenylephrine; format: cell-based; settings: cumulative concentrations 1 to 1000 nM
Protocol: Experiments used male rabbits weighing between 3.5 and 4.0 Kg. The animals were anesthetized with sodium pentobarbital (40 mg/kg, i.p), and the abdominal cavity opened for the withdrawal of the penis from the animals. The tissues were placed in a Petri dish containing Krebs-Henseleit solution pH 7.4 (NaCl 118 mM; KCl 4.8 mM; CaCl2 2.5 mM; MgSO4 1.2 mM; KH2PO4 0.9 mM; NaHCO3 25 mM; glucose 11 mM) warmed to 37° C., and cartilage and adherent tissue were carefully removed. In general 3 segments containing approximately 2 cm of length of cavernous body were obtained from each animal. The preparations were mounted on glass reservoirs containing 5 ml of Krebs solution containing indomethacin (5.6 μM) at 37° C., continuously aerated with a mixture of 95% of O2 and 5% of CO2.
The preparations were submitted to a period of equilibrium of at least 90 minutes, under tension of 2 g, during which the bath solution was renewed each 15 minutes. Changes of isometric tension were registered using a TRI-201 force transducer (Letica Scientific Instruments, Spain) connected a polygraph.
After the period of stabilization, the preparations were treated with single concentrations of […] of phenylephrine. […]
The relaxation responses caused by the compounds were calculated in relation to the contractile response of phenylephrine, which is considered as 100% of contraction. […]

isolated aorta of rat = assay: Relaxing effect on isolated rat aorta rings pre-contracted with phenylephrine; format: cell-based; settings: rat aorta with endothelium previously treated with phenylephrine; cumulative concentrations 1 to 1000 nM; FIG. 2
Protocol: Experiments used male Wistar rats weighing between 300-350 g. The animals were maintained in an environment with humidity (60-80%) and controlled temperature (22±2° C.), with light-dark cycles of 12 hours and free access to water and rations. Before experiments, the animals were acclimatized in the laboratory for a minimum period of 1 hour. Each animal was used only one time in each test.
The animals were sacrificed by deepening anesthesia with ketamine and xylazine hydrochloride, followed by exsanguination made by section of the carotid artery. After opening of the thoracic cavity, the aorta was carefully removed and transferred to a Petri dish containing Krebs-Henseleit solution, with the following composition (mM): NaCI-118; KCl 4.7; CaCl2 2.5; MgSO4 1.2; KH2PO4 0.9; NaHCO3 25; glucose 11. Afterwards, adipose and adjacent connective tissues were carefully removed. […]
After a period of equilibrium of 60 minutes, the preparations were treated with phenylephrine (0.3-1 μM), and after stabilization of the tonic contraction of the preparation, the integrity of the vascular endothelium was evaluated by the capacity of acetylcholine (ACh, 1 μM) to induce relaxation in the preparations. […]

[2] = system: spontaneous erections in male rats; assay: Test of sexual behavior in rats (spontaneous erections) after oral administration; format: in vivo, rat; settings: 10 mg/kg oral, observed for 1 hour in presence of females, significantly increased compared to vehicle, average±SEM, FIG. 3
Protocol: The utilized protocol was adapted from literature articles (Hosseinzadeh et al., 2008; Rizzo et al., 2008). Two days before execution of experiments, couples of males and females were isolated in plastic boxes. In this period, males were housed for 1 hour per day in reinforced metal cages, rectangular with dimensions of 40×23×33 cm. On the day of the test, the male rats were treated with 10 mg/kg (oral) of compound BL-122 or only with vehicle (saline containing 10% of DMSO). Immediately afterwards, animals were placed in observation cages. The rats that received treatment by oral route were fasted for 4 hours before the test. One and a half (1.5) hours after the oral treatment, the females were placed with the respective males in the cages.

In the case of `CN1CC(=O)N[C@H](Cc2c(C(=O)c3ccc4c(c3)OCO4)[nH]c3ccccc23)C1=O` [Compound BL-122, (R)-3-((2-(benzo[d][1,3]dioxol-5-carbonyl)-1H-indol-3-yl)methyl)-1-methylpiperazine-2,5-dione], the EC50 ([1]; Oryctolagus cuniculus, cavernous body of rabbit previously contracted with phenylephrine, value with interval in brackets) is reported as 15.9 nM, the “maximum relaxation (efficacy)” value ([1]; cavernous body of rabbit previously contracted with phenylephrine (contraction = 100%), average±SEM) is reported as 63.1±7.8% and the “relaxation of rat aorta preparations” value (isolated aorta of rat) is reported as “promoted relaxation”. The spontaneous erections [2] was “about 6.4±2.0”.
